Measured values: US20200405809A1, “COMBINATION OF A CYCLIN DEPENDENT KINASE INHIBITOR AND A BET- BROMODOMAIN INHIBITOR” (Pfizer Inc., priority 2018, published 2020)

Columns and labels:
[1] = system: T47D breast cancer multicellular tumor spheroids; assay: In vitro screen in T47D breast cancer multicellular tumor spheroids, BET inhibitor plus palbociclib; type: cell-based; conditions: for Synergy score: BET inhibitor (30, 300, 3000 nM) in combination with 25 nM palbociclib, from AUC of spheroid growth curves (Chalice Analyzer); for Growth inhibition of T47D spheroids, as average diameter (mm): combination with palbociclib (25 nM) versus single agents
Protocol: T47D multicellular tumor spheroids were grown in a low-adhesion 96-well plate for use in screening. […] Two hundred T47D cells were seeded per well of 96-well ultralow attachment plates (ULA-96U, Thermo Fisher). Cells were grown for 4 days to allow spheroid formation, followed by initiation of compound treatment as indicated (day 0). […] The medium was replaced every 3 days. Spheroid average diameter was quantified every 3 days (Celigo 200-BFFL-S, Nexcelcom) and spheroid growth curves were obtained. The area-under-curve (AUC) was quantified and used to calculate synergy scores for BET inhibitors in combination with palbociclib (Chalice Analyzer, Horizon Discovery).

BRD4 = BRD4 (Homo sapiens, UniProt O60885); conditions: method not given; listed beside Literature Ref.; cited from earlier work
[2] = system: MCF-7 breast cancer xenograft; assay: In vivo study in MCF-7 breast cancer xenograft; design: species or system NOD scid gamma (NSG) mice; conditions: palbociclib 50 mpk plus ABBV-075 2 mpk once daily days 0-20, recovery until day 47
Protocol: NOD scid gamma (NSG) mice (6-7 weeks old, Jax laboratory, Sacramento CA) were subcutaneously injected with 5×10^6 MCF-7 cells (ATCC) with 50% matrigel. When MCF-7 xenografts reached a volume of -150 mm^3, the tumor bearing mice were randomly assigned to four treatment groups, with each n=10 (vehicle, palbociclib (50 mpk), mivebresib (2 mpk), combination treatment with palbociclib (50 mpk) plus mivebresib (2 mpk)). Treatment was initiated after the randomization as indicated. Mice were treated once daily from days 0-20 and then tumors were allowed to recover until day 47. Mean tumor volumes (mm^3) are averages of MCF-7 xenografts (n=10).

[3] = system: Hs766T pancreatic cancer spheroids; assay: In vitro screen in Hs766T PDAC multicellular tumor spheroids, BET inhibitor plus palbociclib; type: cell-based; conditions: combination with palbociclib (50 nM) versus single agents
Protocol: Hs766T multicellular tumor spheroids were grown in a low-adhesion 96-well plate for use in screening. Hs766T cells were cultured in DMEM medium supplemented with 10% fetal bovine serum (GIBCO™). 2% Matrigel (Cultrex, cat#3432-005-1) was added to the medium, and 400 cells/well were subsequently seeded per well of 96-well ultralow attachment plates (ULA-96U, Thermo Fisher). Cells were grown for 4 days to allow spheroid formation, followed by initiation of compound treatment as indicated (day 0). Cells were treated either with vehicle (DMSO), or with 3 nM, 10 nM or 30 nM of test compound B7, or 30 nM, 300 nM or 3000 nM of test compound B8. […] The medium was replaced every 3 days. Spheroid average diameter was quantified every 3 days (Celigo 200-BFFL-S, Nexcelcom). Spheroid growth curves, generated as described in Example 2, are shown in FIGS. 12A-12C (B7); and FIGS. 13A-13C (B8).

## COc1cc2c(cc1-c1c(C)noc1C)ncc1[nH]c(=O)n([C@H](C)c3ccccn3)c12 [B1, IBET-151 (GSK1210151)]
[1]
  Synergy score: 1.09
  Growth inhibition of T47D spheroids, as average diameter (mm): enhanced growth inhibition

## Cc1sc2c(c1C)C(c1ccc(Cl)cc1)=N[C@@H](CC(=O)OC(C)(C)C)c1nnc(C)n1-2 [B2, JQ1]
[1]
  Synergy score: 1.08
  Growth inhibition of T47D spheroids, as average diameter (mm): enhanced growth inhibition

## CCNC(=O)C[C@@H]1N=C(c2ccc(Cl)cc2)c2cc(OC)ccc2-n2c(C)nnc21 [B3, IBET-762 (GSK525762)]
[1]
  Growth inhibition of T47D spheroids, as average diameter (mm): enhanced growth inhibition

## Cc1cc2cc(NS(=O)(=O)c3ccccc3F)ccc2[nH]c1=O [B4, PFI-2]
BRD4
  IC50: 96 nM
[1]
  Synergy score: 0.79
  Growth inhibition of T47D spheroids, as average diameter (mm): enhanced growth inhibition

## COc1cc(OC)c2c(=O)[nH]c(-c3cc(C)c(OCCO)c(C)c3)nc2c1 [B6, RVX-208 (RVX000222 or apabetalone)]
[1]
  Synergy score: 0.33
  Growth inhibition of T47D spheroids, as average diameter (mm): enhanced growth inhibition

## CCS(=O)(=O)Nc1ccc(Oc2ccc(F)cc2F)c(-c2cn(C)c(=O)c3[nH]ccc23)c1 [B7, ABBV-075 (mivebresib)]
[2]
  Tumor growth delay and tumor growth inhibition (mean tumor volume): enhanced tumor growth delay and tumor growth inhibition
BRD4
  IC50: 1.5 nM
[3]
  Growth inhibition of Hs766T spheroids, as average diameter (mm): enhanced growth inhibition
[1]
  Growth inhibition of T47D spheroids, as average diameter (mm): enhanced growth inhibition

## COc1nnc2ccc(N3CCC(c4ccc(OCCN5CCN(C)C(=O)[C@H]5C)cc4)CC3)nn12 [B8, AZD5153]
[3]
  Growth inhibition of Hs766T spheroids, as average diameter (mm): enhanced growth inhibition
[1]
  Growth inhibition of T47D spheroids, as average diameter (mm): enhanced growth inhibition

## Cc1noc2c1-c1ccccc1C(c1ccc(Cl)cc1)=N[C@H]2CC(N)=O [B9, CPI-0610]
[1]
  Growth inhibition of T47D spheroids, as average diameter (mm): enhanced growth inhibition

## Cc1sc2c(c1C)C(c1ccc(Cl)cc1)=N[C@@H](CC(=O)Nc1ccc(O)cc1)c1nnc(C)n1-2 [B10, MK-8628 (OTX015)]
[1]
  Growth inhibition of T47D spheroids, as average diameter (mm): enhanced growth inhibition

## PFI-1 [B5]
BRD4
  IC50: 136 nM
[1]
  Synergy score: 0.76
  Growth inhibition of T47D spheroids, as average diameter (mm): enhanced growth inhibition
